From patent US20020133846A1, “Method for protecting plants” (priority 1996, published 2002)

Columns and labels:
Cercospora nicotianae = experiment: Action against Cercospora nicotianae on tobacco plants; format: in vivo
[1] = tested on: Colletotrichum lagenarium; experiment: Action against Colletotrichum lagenarium on Cucumis sativus L., foliar application; format: in vivo
[2] = tested on: Colletotrichum lagenarium; experiment: Action against Colletotrichum lagenarium on Cucumis sativus L., soil application; format: in vivo
Erysiphe graminis = experiment: Action against Erysiphe graminis on barley (residual-protective / systemic)
Procedure: Residual-protective action: Barley plants about 8 cm in height were sprayed to drip point with an aqueous spray mixture (max. 0.02 % active ingredient) and were dusted 3 to 4 days later with conidia of the fungus. The infected plants were stood in a greenhouse at 22°. Fungus infestation was generally evaluated 10 days after infection.
Systemic action: Barley plants about 8 cm in height were watered with an aqueous spray mixture (max. 0.002 % active ingredient, based on the volume of the soil). […] The plants were dusted with conidia of the fungus 3 to 4 days later. The infected plants were stood in a greenhouse at 22°. Fungus infestation was generally evaluated 10 days after infection.

CC(Cc1ccc(C(C)(C)C)cc1)CN1C[C@@H](C)O[C@@H](C)C1 (relative stereo) [fenpropimorph, cis-4-[3-(4-tert-butylphenyl)-2-methylpropyl]-2,6-dimethylmorpholine]
% action O (observed) (Cercospora nicotianae; Table 11, comp. II alone 2 kg a.i. per ha): 13% | % action O (observed) (Cercospora nicotianae; Table 11, comp. II alone 6 kg a.i. per ha): 23% | % action O (observed) (Cercospora nicotianae; Table 11, comp. II alone 10 kg a.i. per ha): 42%

CO/C=C(/C(=O)OC)c1ccccc1Oc1cc(Oc2ccccc2C#N)ncn1 [azoxystrobin, methyl-(E)-2-{2-[6-(2-cyanophenoxy)pyrimidin-4-yloxy]phenyl}-3-methoxyacrylate]
% action O (observed) ([1]; Table 4, comp. II alone 0.06 ppm): 5% | % action O (observed) ([1]; Table 4, comp. II alone 0.2 ppm): 9% | % action O (observed) ([1]; Table 4, comp. II alone 0.6 ppm): 12% | % action O (observed) ([1]; Table 4, comp. II alone 6 ppm): 17% | % action O (observed) ([1]; Table 7, comp. II alone 2 ppm): 18% | % action O (observed) ([1]; Table 7, comp. II alone 6 ppm): 75% | % action O (observed) ([2]; Table 5, comp. II alone 0.2 ppm): 0% | % action O (observed) ([2]; Table 5, comp. II alone 0.6 ppm): 9% | % action O (observed) ([2]; Table 5, comp. II alone 2 ppm): 28% | % action O (observed) ([2]; Table 5, comp. II alone 6 ppm): 66% | % action O (observed) ([2]; Table 8, comp. II alone 0.02 ppm): 1% | % action O (observed) ([2]; Table 8, comp. II alone 0.06 ppm): 5% | % action O (observed) ([2]; Table 8, comp. II alone 0.6 ppm): 27% | % action O (observed) ([2]; Table 8, comp. II alone 2 ppm): 61% | % action O (observed) ([2]; Table 8, comp. II alone 6 ppm): 93%

CO/N=C(/C(=O)OC)c1ccccc1COc1ccccc1C [cresoxime methyl, methyl-(E)-2-methoximino-2-[μ-(o-tolyloxy)-o-tolyl]acetate]
% action O (observed) ([1]; Table 6, comp. II alone 2 ppm): 0% | % action O (observed) ([1]; Table 6, comp. II alone 20 ppm): 41%

CC(C1CC1)C(O)(Cn1cncn1)c1ccc(Cl)cc1 (stereo not shown) [cyproconazol, μ-(4-chlorophenyl)-μ-(1-cyclopropylethyl)-1H-1,2,4-triazole-1-ethanol]
% action O (observed) (Cercospora nicotianae; Table 10, comp. II alone 2 ppm): 0% | % action O (observed) (Cercospora nicotianae; Table 10, comp. II alone 6 ppm): 0%

CC1COC(Cn2cncn2)(c2ccc(Oc3ccc(Cl)cc3)cc2Cl)O1 (stereo not shown) [difenoconazole, 1-{2-[2-chloro-4-(4-chlorophenoxy)phenyl]-4-methyl-1,3-dioxolan-2-ylmethy 1)-1H-1,2,4-triazole]
% action O (observed) (Cercospora nicotianae; Table 12, comp. II alone 0.6 kg a.i. per ha): 3% | % action O (observed) (Cercospora nicotianae; Table 12, comp. II alone 2 kg a.i. per ha): 23% | % action O (observed) (Cercospora nicotianae; Table 12, comp. II alone 6 kg a.i. per ha): 32%

CC1(C)CCC(Cc2ccc(Cl)cc2)C1(O)Cn1cncn1 (stereo not shown) [metconazol, 5-(4-chlorobenzyl)-2,2-dimethyl-1-(1H-1,2,4-triazol-1-ylmethyl)-cyclopentanol]
% action O (observed) (Erysiphe graminis; Table 1, comp. II alone 0.6 ppm): 10% | % action O (observed) (Erysiphe graminis; Table 1, comp. II alone 2 ppm): 40% | % action O (observed) (Erysiphe graminis; Table 1, comp. II alone 6 ppm): 51% | % action O (observed) (Erysiphe graminis; Table 1, comp. II alone 20 ppm): 65% | % action O (observed) (Erysiphe graminis; Table 3, comp. II alone 6 ppm): 17% | % action O (observed) (Erysiphe graminis; Table 3, comp. II alone 20 ppm): 33% | % action O (observed) (Erysiphe graminis; Table 3, comp. II alone 60 ppm): 50%

CC(C)(C)C(O)(CCc1ccc(Cl)cc1)Cn1cncn1 (stereo not shown) [tebuconazol, μ-[2-(4-chlorophenyl)ethyl]-μ-(1,1-dimethylethyl)-1H-1,2,4-triazole-1-ethanol]
% action O (observed) (Cercospora nicotianae; Table 9, comp. II alone 2 ppm): 0% | % action O (observed) (Cercospora nicotianae; Table 9, comp. II alone 6 ppm): 0%
